Measured values published in ChEMBL document CHEMBL3822376, “Potent anticholinesterasic and neuroprotective pyranotacrines as inhibitors of beta-amyloid aggregation, oxidative stress and tau-phosphorylation for Alzheimer's disease” (Eur J Med Chem, 2016).
Activity calls are given as the source filed them. The calls are words filed in the database; no cut-off is given here.

Experiments:
[1] = in vitro; details: human, SH-SY5Y cells
Description: Neurotoxicity in human SH-SY5Y cells assessed as cell viability at 1 uM after 24 hrs by XTT assay relative to control

[2] = test system: SH-SY5Y; test: cells; details: Homo sapiens, 24 h
Description: Neuroprotective activity against rotenone/oligomycin-A-induced cell death in human SH-SY5Y cells assessed as increase in cell viability after 24 hrs by XTT assay

[3] = in vitro; details: human, SH-SY5Y cells; remark: listed apart in the source
Description: Neurotoxicity in human SH-SY5Y cells assessed as cell viability at 10 uM after 24 hrs by XTT assay relative to control

[4] = in vitro; details: human, SH-SY5Y cells; remark: listed apart in the source
Description: Neurotoxicity in human SH-SY5Y cells assessed as cell viability at 5 uM after 24 hrs by XTT assay relative to control

[5] = in vitro; details: human, SH-SY5Y cells; remark: listed apart in the source
Description: Neurotoxicity in human SH-SY5Y cells assessed as cell viability at 50 uM after 24 hrs by XTT assay relative to control

[6] = test system: SH-SY5Y; test: Neuroprotective activity in human SH-SY5Y cells assessed as reversal of 20 nM okadaic acid-induced cell death at 1 to 10 uM after 24 hrs by XTT assay; assay type: functional, cell-based
[7] = in vitro; details: human, SH-SY5Y cells; remark: listed apart in the source
Description: Neurotoxicity in human SH-SY5Y cells assessed as cell viability at 25 uM after 24 hrs by XTT assay relative to control

[8] = in vitro; details: human, SH-SY5Y cells; remark: listed apart in the source
Description: Neurotoxicity in human SH-SY5Y cells assessed as cell viability at 0.1 uM after 24 hrs by XTT assay relative to control

[9] = in vitro; details: human, HepG2 cells
Description: (§1) Hepatotoxicity in human HepG2 cells assessed as reduction in cell viability by MTT assay

[10] = biological target: T1, Acetylcholinesterase (Electrophorus electricus, UniProt O42275)
T1 sequence (O42275 whole entry): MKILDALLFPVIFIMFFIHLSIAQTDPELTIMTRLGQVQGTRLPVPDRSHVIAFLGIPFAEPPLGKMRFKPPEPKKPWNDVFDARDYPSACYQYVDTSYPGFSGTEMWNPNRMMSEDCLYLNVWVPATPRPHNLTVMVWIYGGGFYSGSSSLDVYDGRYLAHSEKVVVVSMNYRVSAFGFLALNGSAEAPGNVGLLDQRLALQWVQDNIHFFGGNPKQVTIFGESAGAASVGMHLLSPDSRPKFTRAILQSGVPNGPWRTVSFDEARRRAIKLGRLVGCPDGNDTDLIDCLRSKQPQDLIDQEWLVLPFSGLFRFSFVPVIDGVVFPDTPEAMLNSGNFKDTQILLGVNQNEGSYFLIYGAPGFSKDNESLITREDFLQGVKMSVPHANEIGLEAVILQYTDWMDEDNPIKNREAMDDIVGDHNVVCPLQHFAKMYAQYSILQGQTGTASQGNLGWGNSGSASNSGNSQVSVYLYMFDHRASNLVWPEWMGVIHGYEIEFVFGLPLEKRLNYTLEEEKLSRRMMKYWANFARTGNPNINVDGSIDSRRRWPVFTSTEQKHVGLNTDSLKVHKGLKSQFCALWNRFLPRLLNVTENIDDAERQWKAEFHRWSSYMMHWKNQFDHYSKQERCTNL
Description: Inhibition of electric eel AChE using acetylcholine as substrate preincubated for 15 mins followed by substrate addition by Ellman's method

[11] = biological target: Acetylcholinesterase (Electrophorus electricus) (UniProt O42275); test: Inhibition of electric eel AChE-induced amyloid beta (1 to 40) aggregation at 25 uM measured every 24 hrs for 7 days by Thioflavin T based fluorometric assay relative to control
Chain of Acetylcholinesterase (Electrophorus electricus) (O42275 24-633 limits assumed): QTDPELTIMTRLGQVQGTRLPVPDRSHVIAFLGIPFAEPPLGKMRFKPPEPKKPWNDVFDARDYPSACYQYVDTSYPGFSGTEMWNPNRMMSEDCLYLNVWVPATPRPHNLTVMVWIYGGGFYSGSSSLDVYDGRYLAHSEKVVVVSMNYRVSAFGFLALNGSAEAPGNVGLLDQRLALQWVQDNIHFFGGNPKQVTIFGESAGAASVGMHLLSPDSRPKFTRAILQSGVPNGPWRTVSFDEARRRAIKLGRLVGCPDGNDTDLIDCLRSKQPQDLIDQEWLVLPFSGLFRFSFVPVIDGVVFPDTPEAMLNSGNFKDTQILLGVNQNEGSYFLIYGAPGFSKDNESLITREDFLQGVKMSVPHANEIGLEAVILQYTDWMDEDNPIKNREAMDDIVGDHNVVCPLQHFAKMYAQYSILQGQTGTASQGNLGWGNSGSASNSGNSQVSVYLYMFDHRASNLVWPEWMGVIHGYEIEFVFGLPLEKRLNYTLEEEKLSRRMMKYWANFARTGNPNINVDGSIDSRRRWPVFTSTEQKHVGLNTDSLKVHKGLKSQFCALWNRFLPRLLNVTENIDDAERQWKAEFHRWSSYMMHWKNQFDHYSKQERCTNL

[12] = biological target: Cholinesterase (Equus caballus) (UniProt P81908); test: Inhibition of horse serum BuChE using […] as substrate at 50 uM preincubated for 15 mins followed by substrate addition by Ellman's method relative to control
Chain of Cholinesterase (Equus caballus) (P81908 whole entry): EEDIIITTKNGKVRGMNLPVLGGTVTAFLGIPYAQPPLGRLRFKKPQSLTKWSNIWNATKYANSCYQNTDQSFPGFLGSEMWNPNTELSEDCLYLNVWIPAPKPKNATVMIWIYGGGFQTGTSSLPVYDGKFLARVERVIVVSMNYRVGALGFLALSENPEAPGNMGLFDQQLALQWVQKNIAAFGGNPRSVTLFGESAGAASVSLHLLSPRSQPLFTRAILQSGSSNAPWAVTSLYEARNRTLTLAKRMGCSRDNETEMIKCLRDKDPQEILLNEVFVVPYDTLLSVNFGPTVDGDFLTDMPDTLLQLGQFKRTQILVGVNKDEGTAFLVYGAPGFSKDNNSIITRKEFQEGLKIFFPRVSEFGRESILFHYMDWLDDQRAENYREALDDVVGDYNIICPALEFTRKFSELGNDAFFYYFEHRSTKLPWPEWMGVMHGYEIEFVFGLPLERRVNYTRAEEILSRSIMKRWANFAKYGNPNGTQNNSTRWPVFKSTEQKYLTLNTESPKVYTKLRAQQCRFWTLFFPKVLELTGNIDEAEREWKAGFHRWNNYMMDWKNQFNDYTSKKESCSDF

[13] = test system: SH-SY5Y; test: Neuroprotective activity against amyloid beta (1 to 40)-induced cell death in human SH-SY5Y cells assessed as increase in cell viability at 10 uM after 48 hrs by XTT assay; assay type: functional, cell-based
[14] = in vitro; details: human, HepG2 cells; remark: listed apart in the source
[15] = test system: HepG2
Description: as §1

[16] = biological target: Acetylcholinesterase (Homo sapiens) (UniProt P22303); test: Inhibition of AChE in human SH-SY5Y cells assessed as inhibition of amyloid beta (1 to 40) (unknown origin)-induced amyloid beta aggregation at 5 to 10 uM measured every 24 hrs for 7 days by Thioflavin T based fluorometric assay; assay type: cell-based
Chain of Acetylcholinesterase (Homo sapiens) (P22303 whole entry): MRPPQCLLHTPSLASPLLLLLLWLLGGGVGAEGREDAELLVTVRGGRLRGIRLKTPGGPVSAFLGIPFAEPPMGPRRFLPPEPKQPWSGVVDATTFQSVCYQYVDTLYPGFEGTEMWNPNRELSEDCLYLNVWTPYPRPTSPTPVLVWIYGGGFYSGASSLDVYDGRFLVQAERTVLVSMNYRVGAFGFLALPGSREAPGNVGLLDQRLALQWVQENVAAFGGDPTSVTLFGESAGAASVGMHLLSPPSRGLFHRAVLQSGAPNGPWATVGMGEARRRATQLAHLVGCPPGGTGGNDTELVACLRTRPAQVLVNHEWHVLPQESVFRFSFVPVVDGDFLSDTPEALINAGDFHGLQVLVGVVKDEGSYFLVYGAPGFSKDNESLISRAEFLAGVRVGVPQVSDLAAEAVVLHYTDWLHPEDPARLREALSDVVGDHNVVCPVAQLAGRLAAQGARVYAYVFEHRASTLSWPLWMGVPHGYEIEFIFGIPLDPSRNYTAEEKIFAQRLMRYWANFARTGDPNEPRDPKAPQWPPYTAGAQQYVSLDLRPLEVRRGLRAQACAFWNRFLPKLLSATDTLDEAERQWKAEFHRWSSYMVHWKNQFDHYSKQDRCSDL

[17] = test system: SH-SY5Y; test: Neuroprotective activity against amyloid beta (1 to 40)-induced cell death in human SH-SY5Y cells at 10 uM after 48 hrs by phase contrast microscopic analysis; assay type: functional, cell-based
[18] = biological target: Acetylcholinesterase (Homo sapiens) (UniProt P22303); test: Inhibition of AChE in human SH-SY5Y cells assessed as decrease in okadaic acid-induced tau oligomerization at 10 uM after 24 hrs by Western blot analysis; assay type: cell-based
[19] = biological target: Acetylcholinesterase (Homo sapiens) (UniProt P22303); test: Inhibition of AChE in human SH-SY5Y cells assessed as reduction in rotenone/oligomycin-A-induced tau phosphorylation at Ser-396 residue at 10 uM after 24 hrs by Western blot analysis; assay type: cell-based
[20] = biological target: Acetylcholinesterase (Homo sapiens) (UniProt P22303); test: Inhibition of AChE in human SH-SY5Y cells assessed as inhibition of amyloid beta (1 to 40) (unknown origin)-induced tau phosphorylation at Ser-396 residue at 5 to 10 uM after 48 hrs by Western blot analysis; assay type: cell-based
[21] = test system: SH-SY5Y; test: Neuroprotective activity against 20 nM okadaic acid-induced cell death in human SH-SY5Y cells at 5 to 10 uM after 24 hrs by phase contrast microscopic analysis; assay type: functional, cell-based
[22] = test system: SH-SY5Y; test: Neuroprotective activity in human SH-SY5Y cells assessed as reversal of 15 nM okadaic acid-induced cell death at 1 to 10 uM after 24 hrs by XTT assay; assay type: functional, cell-based
[23] = biological target: Acetylcholinesterase (Homo sapiens) (UniProt P22303); test: Inhibition of AChE in human SH-SY5Y cells assessed as decrease in okadaic acid-induced tau phosphorylation at Ser-396 residue at 10 uM after 24 hrs by Western blot analysis; assay type: cell-based
[24] = biological target: Acetylcholinesterase (Electrophorus electricus) (UniProt O42275); details: 25 uM
Description: Inhibition of electric eel AChE-induced amyloid beta (1 to 40) aggregation at 25 uM measured every 24 hrs for 7 days by Thioflavin T based fluorometric assay relative to propidium iodide

[25] = biological target: T1, Acetylcholinesterase; test: Mixed-type inhibition of electric eel AChE using acetylthiocholine as substrate preincubated for 15 mins followed by substrate addition by Dixon plot analysis

| Structure (SMILES) | viability at 24 h, 1 µM [1] [%] | EC50 [2] [µM] | viability at 24 h, 10 µM [3] [%] | viability at 24 h, 5 µM [4] [%] | viability at 24 h, 50 µM [5] [%] | Activity [6] | viability at 24 h, 25 µM [7] [%] | viability at 24 h, 0.1 µM [8] [%] | EC50 [9] [µM] | IC50 [10] [µM] | inhibition [12] [%] | Activity [13] | Activity [22] | also measured |
| --- | --- | --- | --- | --- | --- | --- | --- | --- | --- | --- | --- | --- | --- | --- |
| CCOC(=O)C1=C(C)Oc2nc3c(c(N)c2C1c1cc2ccc(OC)cc2nc1Cl)CCC3 (centres undefined) | 135 | 2.4 | 116 | 119 | 112 | Active | 106 | 115 | 931 | 4.02 | – | – | – | inhibition [11]: 28.3% |
| CCOC(=O)C1=C(C)Oc2nc3c(c(N)c2C1c1cc2cc(OC)ccc2nc1Cl)CCCC3 (centres undefined) | 110 | 0.34 | 116 | 135 | 68.5 | inactive | 125 | 128 | 73 | 2.23 | – | – | – | – |
| CCOC(=O)C1=C(C)Oc2nc3c(c(N)c2C1c1cc2ccc(OC)cc2nc1Cl)CCCC3 (centres undefined) | 130 | 2.3 | 125 | 131 | 129 | Active | 123 | 103 | 942 | 1.52 | 50 | – | – | – |
| COC(=O)C1=C(C)Oc2nc3c(c(N)c2C1c1cc2ccc(OC)cc2nc1Cl)CCCCC3 (centres undefined) | 93.2 | 5.63 | 85.1 | 95.9 | 75.1 | Active | 98.6 | 90.8 | 745 | 1.87 | 50 | Active | – | – |
| COc1ccc2cc(C3C4=C(CC(C)(C)CC4=O)Oc4nc5c(c(N)c43)CCC5)c(Cl)nc2c1 (centres undefined) | 91.6 | 0.63 | 102 | 113 | 94.9 | inactive | 124 | 85 | – | 0.58 | – | – | – | selectivity ratio [14]: 11; EC50 [15]: 1920 µM |
| CCOC(=O)C1=C(C)Oc2nc3c(c(N)c2C1c1cc2ccccc2nc1Cl)CCCC3 (centres undefined) | 104 | 1.54 | 96.5 | 99.7 | 93.6 | Active | 95.5 | 110 | – | 0.48 | 50 | Active | Active | selectivity ratio [14]: 27; inhibition [16]: Active; Activity [17]: Active; inhibition [18]: Active; EC50 [15]: 4820 µM; inhibition [19]: Active; inhibition [20]: Active; Activity [21]: Active; inhibition [23]: Active |
| COC(=O)C1=C(C)Oc2nc3c(c(N)c2C1c1cc2ccc(OC)cc2nc1Cl)CCCC3 (centres undefined) | 105 | 0.63 | 113 | 132 | 82.5 | Active | 133 | 128 | 622 | 0.47 | 50 | Active | Active | selectivity ratio [14]: 3.4; inhibition [16]: Active; Activity [17]: Active; inhibition [24]: 65%; Ki [25]: 0.0142 µM; inhibition [20]: Active; Activity [21]: Active; inhibition [11]: 75% |
| COc1ccc2cc(C3C4=C(CC(C)(C)CC4=O)Oc4nc5c(c(N)c43)CCCC5)c(Cl)nc2c1 (centres undefined) | 95.6 | 12.2 | 103 | 113 | 90.6 | Active | 113 | 93.8 | 922 | 14.8 | – | Active | – | – |
| CCOC(=O)C1=C(C)Oc2nc3c(c(N)c2C1c1cc2cc(C)ccc2nc1Cl)CCCC3 (centres undefined) | 82.9 | 2.43 | 97.2 | 101 | 80.2 | Active | 112 | 90.1 | 128 | 0.54 | 50 | Active | Active | – |
| CCOC(=O)C1=C(C)Oc2nc3c(c(N)c2C1c1cc2cccc(OC)c2nc1Cl)CCCC3 (centres undefined) | 91.9 | 1.95 | 96.5 | 100 | 99.5 | Active | 100 | 107 | – | 0.61 | – | – | Active | EC50 [15]: 1080 µM |
| CCOC(=O)C1=C(C)Oc2nc3c(c(N)c2C1c1cc2ccc(OC)cc2nc1Cl)CCCCC3 (centres undefined) | 99 | 4.7 | 106 | 125 | 106 | inactive | 109 | 84.2 | 656 | 9.8 | – | Active | – | – |
| COc1ccc2cc(C3C4=C(CC(C)(C)CC4=O)Oc4nc5c(c(N)c43)CCCCC5)c(Cl)nc2c1 (centres undefined) | 97.3 | 5.6 | 97.3 | 111 | 103 | Active | 118 | 92.2 | 330 | 2.81 | – | – | – | – |
| COC(=O)C1=C(C)Oc2nc3c(c(N)c2C1c1cc2ccc(OC)cc2nc1Cl)CCC3 (centres undefined) | 94.2 | 11.8 | 98 | 114 | 93.2 | Active | 118 | 104 | 540 | 1.66 | – | Active | – | – |
